Source: paper PMC9781803, “Phenotypic and Target-Directed Screening Yields New Acaricidal Alternatives for the Control of Ticks” (Molecules, 2022)

What was measured:
[1] = design: method as in PMID 28481276; details: in mice; cited from earlier work
[2] = tested on: J774.1 murine macrophages; assay: Cytotoxicity assay on murine macrophages (MTT); type: cell-based; details: Mus musculus, J774.1, 48 h, read-out: IC50 (µM) Mammalian Cells
Method: J774.1 murine macrophages (ATCC, Rockville, MD, USA) were grown in a DMEM culture medium containing 4 mM L-glutamine, and supplemented with 10% FCS. The cells were seeded into a 96-well plate (5 × 10^4 cells in 200 µL culture medium) and incubated at 37 °C in a 5% CO2 atmosphere for 48 h, to allow cell adhesion before drug testing. Afterward, the cells were exposed for 48 h to the compounds (25–400 μM) or the vehicle (0.4% DMSO), and additional controls (cells in medium) were used in each test. Cell viability was then assessed by measuring the mitochondria-dependent reduction of MTT to formazan: for this, MTT in sterile PBS (0.2% glucose), pH 7.4, was added to the macrophages, to a final concentration of 0.1 mg/mL, and the cells were then incubated at 37 °C for 3 h. After removing the medium, the formazan crystals were dissolved in 180 μL of DMSO and 20 μL of MTT buffer (0.1 M glycine, 0.1 M NaCl, 0.5 mM EDTA, pH 10.5), and the absorbance was measured at 560 nm. The IC50 was defined as the drug concentration at which 50% of the cells were viable, relative to the control (no drug added), and was determined by analysis using OriginLab 8.5 Corporation, Northampton, MA, USA, sigmoidal regression (% of viable cells compared to the logarithm of the compound concentration). The tests were performed in triplicate in two independent experiments.

[3] = design: method as in PMID 28481276; details: experimental data; cited from earlier work
[4] = tested on: embryonic cell line BME26; assay: Phenotypic screening on BME26 cell cultures (MTT viability); type: cell-based, R. microplus
Method: The embryonic cell line BME26 from R. microplus (Centro de Biotecnologia, Universidade Federal do Rio Grande do Sul, Porto Alegre, RS, Brazil) was grown as adherent monolayers in a complete medium, as described previously, which consisted of L-15B300 medium supplemented with 5% heat-inactivated Fetal Bovine Serum (FBS) (Gibco Co., Grand Island, NY), 10% Tryptose Phosphate Broth (TPB) (BD), penicillin (100 U/mL), streptomycin ([…], Gibco Co., Grand Island, NY, USA), and 0.1% bovine lipoprotein concentrate (ICN), (pH 7.2). The suspension of embryonic BME26 cells from R. microplus was seeded into 24-well plates (5 × 10^5 cells/well) to a final volume of 500 μL in a complete medium, and allowed to attach. After 24 h incubation at 34 °C, the extracts (100 µg/mL final concentration) and the compounds were added to the final concentrations indicated (1–100 µM), and 0.05% dimethylsulfoxide (DMSO) was used in the negative control wells. After 24 h of treatment, 50 μL of 3-(4,5-dimethylthiazol-2-yl)-2,5-diphenyltetrazolium bromide (MTT) prepared in serum-free medium (5 mg/mL) was added to each well. The media were discarded after 2 additional hours of incubation, and 1 mL of acid-isopropyl alcohol (0.15% HCl in isopropyl alcohol) was added to dissolve the formazan crystals. The mixture was transferred to 1.5 mL tubes, centrifuged at 6000× g for 15 min, and the clear supernatant was collected in new tubes for absorbance measurement at 570 nm using quartz cuvettes in a UVmini-1240 UV–vis spectrophotometer (Shimadzu, Japan). Absorbance values of the control treatment were used for normalization (100% viability). The activity was determined by analysis using OriginLab8.5® sigmoidal regression (% of viable cells compared to the logarithm of the compound concentration). The half-maximal inhibitory concentration (IC50), defined as the drug concentration at which 50% of the cells were viable relative to the control (no drug added), was used as a measurement of activity. These experiments were performed in triplicate for each compound.

R. microplus = assay: Acaricidal activity on R. microplus (LIT and AIT, overall statement); type: in vivo; details: LIT 1 mM and AIT 1.5 mM
Method: After immersion, the fully engorged females were lightly dried with absorbent paper. […] The tubes carrying the eggs were closed with hydrophilic cotton, and were returned to the incubator chamber under the same conditions until the eggs hatched. The reproductive efficacy, as well as % control of each compound on R. microplus, was calculated according to published reports. The results were verified in two independent experiments. This assay was performed based on the method of Castro-Janer et al., 2011. […] The tubes were incubated in the same conditions as described above. The larvae were ready for testing after 14 to 21 days from egg-hatching. For the test, the compounds were diluted in DMSO, and were later resuspended in distilled water, always using 15% DMSO of the final solution volume. […] For the immersion procedure, tubes containing the larvae were placed vertically, without the cotton plug, and the larvae were taken with a brush from the top of the tube, ensuring they were viable. A cluster with a diameter of 2 mm of larvae was collected with a brush, and was later immersed in each solution, as well as in both control solutions, for 10 min. After this time, the solutions were drained, and the larvae were placed in 8.5 cm × 7.5 cm Whatman No. 1 filter papers. The filters were folded in the middle of the 8.5 cm side, and closed with 3 bulldog clips, forming packets. These packets were incubated for 24 h, under the same conditions as described previously, and then the percent of mortality was determined, considering it as the % of the control.

[5] = tested on: fully engorged females of the Mozo susceptible strain of R. microplus; assay: Adult Immersion Test (AIT); type: in vivo; details: compounds 1.5 mM, 15 min immersion, 14 days
Method: This essay was performed based on Drummond et al., 1973, as each group of 5 fully engorged females of the Mozo susceptible strain of R. microplus was immersed in 50 mL tubes containing 10 mL of compounds at different concentrations (0.5, 1, 1.5, 2, 3.5 mM) for 15 min in four replicates. Four negative control groups were used (DMSO 10%). After immersion, the fully engorged females were lightly dried with absorbent paper. They were then placed in 100 mm disposable Petri dishes with their respective identification, and immediately incubated at 27 °C in an atmosphere with relative humidity (RH) of 85-90% for 14 days. […] The tubes carrying the eggs were closed with hydrophilic cotton, and were returned to the incubator chamber under the same conditions until the eggs hatched. The reproductive efficacy, as well as % control of each compound on R. microplus, was calculated according to published reports. The results were verified in two independent experiments.

[6] = tested on: R. microplus (Mozo strain) larvae; assay: Larval Immersion Test (LIT); type: in vivo; details: compounds 1.0 mM, 10 min immersion, 24 h
Method: This assay was performed based on the method of Castro-Janer et al., 2011. Fully engorged females of R. microplus (Mozo strain) were incubated in Petri dishes at 27 °C and 85–90% relative humidity for 14 days. […] The tubes were incubated in the same conditions as described above. The larvae were ready for testing after 14 to 21 days from egg-hatching. For the test, the compounds were diluted in DMSO, and were later resuspended in distilled water, always using 15% DMSO of the final solution volume. The concentrations for the different compounds for the final immersion solution are 1 mg/mL for the extracts, and 1 mM for the compounds. […] For the immersion procedure, tubes containing the larvae were placed vertically, without the cotton plug, and the larvae were taken with a brush from the top of the tube, ensuring they were viable. A cluster with a diameter of 2 mm of larvae was collected with a brush, and was later immersed in each solution, as well as in both control solutions, for 10 min. After this time, the solutions were drained, and the larvae were placed in 8.5 cm × 7.5 cm Whatman No. 1 filter papers. The filters were folded in the middle of the 8.5 cm side, and closed with 3 bulldog clips, forming packets. These packets were incubated for 24 h, under the same conditions as described previously, and then the percent of mortality was determined, considering it as the % of the control.

For `O=C(/C=C/c1cccs1)/C=C/c1cccs1` [compound 796], which “LD50 (mg/kg)” value [1] is on record?
Its value is >2000^+ mg/kg.

And the IC50 [2]?
Its IC50 is > 50 µM.

And the “Mutagenicity by Ames Test” value [3]?
The value was “Negative *”.

What about the IC50 ([4]; BME26 cells, 24 h, MTT, read-out: IC50) of the same compound?
The IC50 was 15 ± 3 µM.

What about the inhibition at 100 µM ([4]; synthetic compounds at 100 μM, BME26, 24 h, read-out: % of Growth Inhibition) of the same compound?
The inhibition at 100 µM was 93%.

What about the “acaricidal activity (in words)” value (R. microplus) of the same compound?
Its value is “acaricidal potential against R. microplus similar to Amitraz”.

What about the “% of Mortality AIT” value [5] of the same compound?
Its value is 20 ± 1%.

What about the “% of Mortality LIT” value [6] of the same compound?
The value was 36 ± 8%.
